Like-named read-outs stand apart in the source and are kept apart here.
Experiments:
recombinant human MetAP2 = biological target: T1, recombinant human MetAP2 (Homo sapiens, UniProt P50579); assay: MetAP2 enzyme assay (inhibition of recombinant MetAP2, Met-Gly-Met-Met substrate); format: biochemical; conditions: 50 nM
T1 construct: made in house; host or cells: High Five insect cells (Bac-to-Bac baculovirus)
Description: Exemplary procedures for expression and purification of MetAP2 are shown in Griffith et al. (PNAS (1998) 95(26):15183-15188). Briefly, recombinant His-tagged human MetAP2 is expressed by using a Bac-to-Bac baculovirus expression system (GIBCO/BRL). Recombinant baculovirus stocks are generated and amplified as per the manufacturer's instructions. Protein is harvested 36 hr after baculovirus infection of two 15-cm plates of High Five cells.
The cell pellet are weighed and lysed (in 5 ml/g of wet pellet) in pre-chilled lysis buffer [buffer B+1% Nonidet P-40/1 mM phenymethylsulfonyl fluoride (PMSF)/2 μg/ml leupeptin/2 μg/ml aprotinin/1 μg/ml pepstatin]. The lysate is incubated on ice for 10 min and centrifuged at 10,000×g for 10 min. […] The Talon resin is pelleted by centrifugation at 1,200×g for 3 min and washed with 4×10 ml of buffer B. During the final wash, the resin is slurried into a Bio-Rad Econo column. The 6×His-tagged MetAP2 is eluted with 6 ml of 50 mM imidazole in buffer B, and 0.5 ml fractions are collected. The amount and purity of recombinant MetAP2 is analyzed by the absorbance at 280 nm and SDS/PAGE (10% gel). The fractions containing the highest amounts of MetAP2 are pooled and dialyzed against 3 liters of buffer B overnight before storage at 4° C.
An enzyme assay is performed in a 96-well format as described in Griffith et al. (PNAS (1998) 95(26):15183-15188). […] To begin the enzymatic reaction, Met-Gly-Met-Met is added to a final concentration of 4 mM and incubated at 37° C. The reaction is quenched after 20 min by adding EDTA to a concentration of 10 mM. Released methionine is quantitated as described in Ben-Bassat et al. (J Bacteriol (1987) 169:751-757).
IC50 values are calculated and compounds herein are determined to be active inhibitors of MetAP2, with some having nanomolar activities.

[1] = Cell Based Assay (inhibition range)
[2] = Mice weight loss, 7 day, 1 mg/kg/day oral gavage, diet-induced obese mice; format: in vivo; conditions: Mus musculus, 168 h, read-out: Mice Wt Loss 7 day % WL 1 mpk
Text: Lean body mass is important to normal function in subjects. Substantial loss of lean body mass is not a desirable consequence of a therapy for an overweight or obese subject. A study is undertaken to analyze weight loss with respect to lean body mass.
Mice are divided into two groups, a diet-induced obese group and a lean group (control). For the diet-induced obese group, C57BL/6NTac mice maintained prior to and during the study on a diet containing 60% fat on a kilocalorie basis are further divided into two groups, fifteen mice per group. Average body weight of these diet-induced obese mice is 40 g at the start of the study. For the lean group, fifteen C57BLI6NTac mice are maintained on a diet containing 4.3% by weight fat prior to and during the study. Average body weight of these lean mice is 33 g at the start of the study. Daily food consumption is also recorded.
Compounds of the invention are administered to one of the diet-induced obese mice groups by oral gavage as a solution in 10% DMSO, at dose of 1 mg/kg/day, 7 days. The other diet-induced obese mice group and the lean mice group are not administered anything.

[3] = 1 hr, read-out: MetAP2 Enzyme Assay 1 hr 50 nM
[4] = 2 hr, read-out: MetAP2 Enzyme Assay 2 hr 50 nM
[5] = 4 hr, read-out: MetAP2 Enzyme Assay 4 hr 50 nM
[6] = diet-induced obese C57BL/6NTac mice, oral gavage, 1 mg/kg/day, 7 days

T1 sequence (P50579 whole entry): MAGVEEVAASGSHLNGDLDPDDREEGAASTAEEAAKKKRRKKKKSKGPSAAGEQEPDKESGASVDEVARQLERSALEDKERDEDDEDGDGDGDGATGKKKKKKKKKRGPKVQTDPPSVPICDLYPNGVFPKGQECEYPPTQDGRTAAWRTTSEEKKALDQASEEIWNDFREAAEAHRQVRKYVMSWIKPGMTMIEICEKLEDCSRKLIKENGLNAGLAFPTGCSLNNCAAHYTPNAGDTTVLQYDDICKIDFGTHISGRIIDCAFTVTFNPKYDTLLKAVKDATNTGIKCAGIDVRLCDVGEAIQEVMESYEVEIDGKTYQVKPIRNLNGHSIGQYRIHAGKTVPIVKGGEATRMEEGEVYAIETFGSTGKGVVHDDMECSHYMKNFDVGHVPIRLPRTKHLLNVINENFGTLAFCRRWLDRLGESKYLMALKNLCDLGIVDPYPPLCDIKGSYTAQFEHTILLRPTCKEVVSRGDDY

Compound	inhibition at 0.05 µM (recombinant human MetAP2; [3])	inhibition at 0.05 µM (recombinant human MetAP2; [4])	inhibition at 0.05 µM (recombinant human MetAP2; [5])	IC50 ([1]; in uM)	change in vivo at 1 mg/kg [2, 6]	IC50 ([1]; cells printed in nM)	change in vivo at 1 mg/kg ([2]; po)
COC(=O)CCCCCCCCCO[C@H]1CC[C@]2(CO2)[C@@H]([C@@]2(C)O[C@@H]2CC=C(C)C)[C@@H]1OC [Example 6]	0%	0%	0%	> 1 µM	1.7%	–	–
CCOC(=O)CCCCC/C=C/C[C@H]1OC1(C)[C@H]1[C@H](OC)C(=O)CC[C@]12CO2 (stereo partly drawn) [Example 59]	–	–	0%	–	–	0.01 to 0.1 µM	–
CO[C@@H]1[C@H](OC(=O)N[C@@H](C(=O)NCCCN(C)C)C(C)C)CC[C@]2(CO2)[C@H]1[C@@]1(C)O[C@@H]1CC=C(C)C [Example 32]	–	–	54%	–	0.3%	< 0.01 µM	–
CO[C@@H]1[C@H](OC(=O)NC2CN3CCC2CC3)CC[C@]2(CO2)[C@H]1[C@@]1(C)O[C@@H]1CC=C(C)C (stereo partly drawn) [Example 30]	–	–	30%	–	-0.9%	< 0.01 µM	–
CO[C@@H]1[C@@H](F)CC[C@]2(CO2)[C@H]1[C@@]1(C)O[C@@H]1CC=C(C)C [Example 23]	23%	28%	27%	–	-0.33%	0.01 to 0.1 µM	–
CO[C@@H]1C(=O)CC[C@]2(CO2)[C@H]1C1(C)O[C@@H]1CC(=O)O (stereo partly drawn) [Example 55]	–	–	0%	–	–	–	–
CCOC(=O)C=C1CC[C@]2(CO2)[C@@H]([C@@]2(C)O[C@@H]2CC=C(C)C)[C@@H]1OC [Example 37]	–	–	96%	–	–	< 0.01 µM	–
CCCCCCCCCCS[C@@H]1CC[C@]2(CO2)[C@@H]([C@@]2(C)O[C@@H]2CC=C(C)C)[C@@H]1OC [Example 18]	0%	0%	0%	> 1 µM	0%	–	–
CO[C@@H]1[C@H](NCCCCCCCCCC(=O)O)CC[C@]2(CO2)[C@H]1[C@@]1(C)O[C@@H]1CC=C(C)C [Example 7]	0%	0%	0%	> 1 µM	–	–	0.5%
CO[C@H]1[C@H]([C@@]2(C)O[C@@H]2CC=C(C)C)[C@]2(CCC1(F)F)CO2 [Example 17]	29%	44%	40%	> 1 µM	–	–	0.1%
CO[C@@H]1C(=O)C=C[C@]2(CO2)[C@H]1[C@@]1(C)O[C@@H]1CC=C(C)C [Example 57, (3R,S)-7-methoxy-8-((2R,3R)-2-methyl-3-(3-methylbut-2-enyl)oxiran-2-yl)-1-oxaspiro[2.5]oct-4-en-6-one]	–	–	37%	–	–	–	–
CO[C@@H]1C(=CC=C(C)C)CC[C@]2(CO2)[C@H]1[C@@]1(C)O[C@@H]1CC=C(C)C [Example 21]	0%	0%	0%	> 1 µM	–	–	–
CCCC/C=C/C[C@H]1O[C@]1(C)[C@H]1[C@H](OC)[C@H](O)CC[C@]12CO2 [Example 24]	0%	0%	0%	–	–	0.01 to 0.1 µM	–
CO[C@@H]1[C@H](OC(=O)N[C@@H](C(=O)NCCC2CCCN2C)C(C)C)CC[C@]2(CO2)[C@H]1[C@@]1(C)O[C@@H]1CC=C(C)C (stereo partly drawn) [Example 33]	–	–	43%	–	2.1%	< 0.01 µM	–
CO[C@@H]1[C@H](OC(=O)N[C@@H](C(N)=O)C(C)C)CC[C@]2(CO2)[C@H]1[C@@]1(C)O[C@@H]1CC=C(C)C [Example 3]	62%	90%	100%	–	–	< 0.01 µM	5%
CO[C@@H]1C(=O)C(C)C[C@]2(CO2)C1[C@@]1(C)O[C@@H]1CC=C(C)C (stereo partly drawn) [Example 53, (3R,5S)-5-methoxy-7-methyl-4-((2R,3R)-2-methyl-3-(3-methylbut-2-enyl)oxiran-2-yl)-1-oxaspiro[2.5]octan-6-one]	0%	0%	28%	–	–	–	–
COC(=O)CCCCCCCCCO[C@@H]1CC[C@]2(CO2)[C@@H]([C@@]2(C)O[C@@H]2CC=C(C)C)[C@@H]1OC [Example 19]	0%	0%	0%	> 1 µM	-0.9%	–	–
CO[C@@H]1C(=O)CC[C@]2(CO2)[C@H]1C1(C)O[C@@H]1CCC(C)C (stereo in doubt) [Example 52, (3R,5 S)-4-((2R,3R)-3-isopentyl-2-methyloxiran-2-yl)-5-methoxy-1-oxaspiro[2.5]octan-6-one]	0%	0%	17%	–	–	–	–
CO[C@@H]1C(=O)CC[C@]2(CO2)[C@H]1[C@@]1(C)O[C@@H]1CC=C(C)C [Example 51, (3R,5S)-5-methoxy-4-((2R,3R)-2-methyl-3-(3-methylbut-2-enyl)oxiran-2-yl)-1-oxaspiro[2.5]octan-6-one]	0%	44%	78%	–	–	–	–
CO[C@@H]1C(=O)CC[C@@](C)(O)[C@H]1[C@@]1(C)O[C@@H]1CCC(C)C [Example 54, (2S,4R)-4-hydroxy-3-((2R,3R)-3-isopentyl-2-methyloxiran-2-yl)-2-methoxy-4-methylcyclohexanone]	0%	0%	0%	–	–	–	–
C=C1CC[C@]2(CO2)[C@@H]([C@@]2(C)O[C@@H]2C/C=C/CCCC)[C@@H]1OC [Example 22]	0%	0%	0%	> 1 µM	–	–	–
CO[C@@H]1C(C)CC[C@]2(CO2)[C@H]1[C@@]1(C)O[C@@H]1CCC(C)C (stereo partly drawn) [Example 26]	0%	0%	0%	–	–	–	–
CCCCCCCCCC[S+]([O-])[C@@H]1CC[C@]2(CO2)[C@@H]([C@@]2(C)O[C@@H]2CC=C(C)C)[C@@H]1OC (stereo partly drawn) [Example 31]	–	–	0%	–	–	–	–
CO[C@@H]1C(=O)CC[C@]2(CO2)[C@H]1C1(C)O[C@@H]1CC(=O)NCc1ccccc1 (stereo partly drawn) [Example 58]	–	–	0%	–	–	–	–
CO[C@@H]1[C@H](OC(=O)/C=C/C=C/C=C/C=C/C(=O)O)CC[C@]2(CO2)[C@H]1[C@@]1(C)O[C@@H]1CC=C(C)C [Example 36]	–	–	64%	–	–	< 0.01 µM	–

— patent US10259796B2, “Oxaspiro[2.5]octane derivatives and analogs” (Zafgen, Inc., priority 2011, dated 2019)
